Laboratory results as given in publication PMC7383509 (Clinical Pharmacology in Drug Development, 2019).
Values joined by “and” are separate entries in the source; they are usually repeats but may differ in a detail not shown here. Equal entries are not always repeated. Where two headings read alike, the source gives them in different places.

Legend:
[1] = format: in vivo, human; conditions: for AUC / clearance / Cmax / Vd / half-life: 0.5 mg, single 0.5 mg IV; for AUC: AUC0‐t; for AUC / Cmax: dose-normalized to 1 mg; for clearance: CL; for Vd: Vz; for half-life: t½
[2] = human plasma; cited from earlier work
[3] = cited from earlier work
[4] = format: in vivo, human; conditions: for Tmax / AUC / clearance / Cmax / Vd / half-life: human, plasma, iv; for AUC: AUC0‐t; for AUC / clearance / Cmax / Vd / half-life: ESRD subjects, single 0.5 mg IV; for AUC / Cmax: dose-normalized to 1 mg; for clearance: CL; for Vd: Vz; for half-life: t½
[5] = Renal impairment study: safety and tolerability; format: in vivo, human
[6] = Hepatic impairment study: safety and tolerability; format: in vivo, human
μ receptor = conditions: major metabolites of oliceridine; ref data on file; cited from earlier work
[7] = human, plasma, iv, arithmetic mean ± SD, mild hepatic impairment
[8] = human, plasma, iv, arithmetic mean ± SD, moderate hepatic impairment
[9] = human, plasma, iv, arithmetic mean ± SD, severe hepatic impairment
[10] = human, plasma, iv, geometric mean (%CVb), severe hepatic impairment
[11] = human, plasma, iv, geometric mean (%CVb), mild hepatic impairment
[12] = human, plasma, iv, geometric mean (%CVb), moderate hepatic impairment
[13] = ESRD subjects/healthy subjects, ANCOVA
[14] = ESRD subjects/healthy subjects, ANCOVA, dose-adjusted
[15] = mild hepatic impairment, 0.5 mg IV, 10 subjects
[16] = moderate hepatic impairment, 0.5 mg IV, 10 subjects
[17] = severe hepatic impairment, 0.5 mg IV, 6 subjects

Structure (SMILES): COc1ccsc1CNCC[C@@]1(c2ccccn2)CCOC2(CCCC2)C1 [Oliceridine]
- CL, GM ratio Mild:Healthy (90%CI) ([1]; ANOVA): 1.05 (0.77, 1.43)
- CL, GM ratio Moderate:Healthy (90%CI) ([1]; ANOVA): 0.80 (0.59, 1.09)
- CL, GM ratio Severe:Healthy (90%CI) ([1]; ANOVA): 0.99 (0.71, 1.38)
- t½, GM ratio Mild:Healthy (90%CI) ([1]; ANOVA): 1.26 (0.96, 1.66)
- t½, GM ratio Moderate:Healthy (90%CI) ([1]; ANOVA): 2.09 (1.59, 2.75)
- AUC0‐t, GM ratio Mild:Healthy (90%CI) ([1]; dose-normalized, ANOVA): 0.93 (0.68, 1.28)
- AUC0‐∞, GM ratio Mild:Healthy (90%CI) ([1]; dose-normalized, ANOVA): 0.95 (0.70, 1.29)
- AUC0‐∞, GM ratio Moderate:Healthy (90%CI) ([1]; dose-normalized, ANOVA): 1.25 (0.92, 1.70)
- AUC0‐∞, GM ratio Severe:Healthy (90%CI) ([1]; dose-normalized, ANOVA): 1.01 (0.72, 1.41)
- Cmax, GM ratio Mild:Healthy (90%CI) ([1]; dose-normalized, ANOVA): 1.19 (0.54, 2.60)
- Cmax, GM ratio Moderate:Healthy (90%CI) ([1]; dose-normalized, ANOVA): 1.20 (0.55, 2.62)
- Cmax, GM ratio Severe:Healthy (90%CI) ([1]; dose-normalized, ANOVA): 0.24 (0.10, 0.56)
- AUC [1, 7]: 23.3 ± 7.9 ng·h/mL
- AUC [1, 8]: 29.9 ± 11.3 ng·h/mL
- AUC [1, 9]: 23.4 ± 10.3 ng·h/mL
- AUC [1, 10]: 21.8 ng·h/mL
- clearance [1, 7]: 807 mL/min
- clearance [1, 8]: 595 mL/min
- clearance [1, 9]: 738 mL/min
- clearance [1, 11]: 742 mL/min
- clearance [1, 12]: 565 mL/min
- clearance [1, 10]: 697 mL/min
- Cmax [1, 7]: 62.3 ± 48.8 ng/mL
- Cmax [1, 8]: 46.6 ± 19.4 ng/mL
- Cmax [1, 9]: 11.9 ± 10.6 ng/mL
- Cmax [1, 11]: 41.4 ng/mL
- Cmax [1, 12]: 41.9 ng/mL
- Cmax [1, 10]: 8.4 ng/mL
- Vd [1, 7]: 181 ± 81.2 L
- Vd [1, 8]: 215 ± 39.1 L
- Vd [1, 9]: 370 ± 130 L
- Vd [1, 11]: 167 L
- Vd [1, 12]: 212 L
- Vd [1, 10]: 348 L
- half-life [1, 7]: 2.7 ± 0.53 h
- half-life [1, 8]: 4.7 ± 2.1 h
- half-life [1, 9]: 6.3 ± 2.6 h
- half-life [1, 11]: 2.6 h
- half-life [1, 12]: 4.3 h
- half-life [1, 10]: 5.8 h
- AUC(0-t) ([1]; human, plasma, iv, 1 mg): 24.1 ± 7.5 ng·h/mL
- Free fraction [2]: 23%
- Share of the metabolites eliminated in the urine ([3]; remainder eliminated in the feces): Approximately 70%
- CL, ratio of geometric means [4, 13]: 81.2
- t½, ratio of geometric means [4, 13]: 128
- AUC0‐t, ratio of geometric means [4, 14]: 108
- AUC0‐∞, ratio of geometric means [4, 14]: 123
- Cmax, ratio of geometric means [4, 14]: 113
- Tmax ([4]; 0.5 mg): 0.25 h
- AUC ([4]; 0.5 mg, arithmetic mean (SD)): 19.7 ng·h/mL
- AUC ([4]; 0.5 mg, geometric mean (%CVb)): 19.1 ng·h/mL
- clearance ([4]; 0.5 mg, arithmetic mean (SD)): 847 mL/min
- clearance ([4]; 0.5 mg, geometric mean (%CVb)): 820 mL/min
- Cmax ([4]; 0.5 mg, arithmetic mean (SD)): 9.96 ng/mL
- Cmax ([4]; 0.5 mg, geometric mean (%CVb)): 9.87 ng/mL
- Vd ([4]; 0.5 mg, arithmetic mean (SD)): 219 L
- Vd ([4]; 0.5 mg, geometric mean (%CVb)): 212 L
- half-life ([4]; 0.5 mg, arithmetic mean (SD)): 3.11 h
- half-life ([4]; 0.5 mg, geometric mean (%CVb)): 2.99 h
- Tmax ([4]; 1 mg): 0.25 h
- At least 1 TEAE, no. of events ([5]; ESRD, 0.5 mg IV, 9 subjects): 2 no. of events
- Dizziness, subjects ([5]; ESRD, 0.5 mg IV, 9 subjects): 0
- Euphoria, subjects ([5]; ESRD, 0.5 mg IV, 9 subjects): 0
- Fatigue, no. of events ([5]; ESRD, 0.5 mg IV, 9 subjects): 1 no. of events
- Fatigue, subjects ([5]; ESRD, 0.5 mg IV, 9 subjects): 1 (11%) n (%)
- Feeling of relaxation, subjects ([5]; ESRD, 0.5 mg IV, 9 subjects): 0
- Headache, subjects ([5]; ESRD, 0.5 mg IV, 9 subjects): 0
- Nausea, no. of events ([5]; ESRD, 0.5 mg IV, 9 subjects): 1 no. of events
- Nausea, subjects ([5]; ESRD, 0.5 mg IV, 9 subjects): 1 (11%) n (%)
- Pain in extremity, subjects ([5]; ESRD, 0.5 mg IV, 9 subjects): 0
- Subjects with TEAEs by maximum severity: Mild ([5]; ESRD, 0.5 mg IV, 9 subjects): 2 (22%) n (%)
- Subjects with TEAEs by maximum severity: Moderate ([5]; ESRD, 0.5 mg IV, 9 subjects): 0
- Subjects with TEAEs by maximum severity: Severe ([5]; ESRD, 0.5 mg IV, 9 subjects): 0
- Subjects with at least 1 TEAE ([5]; ESRD, 0.5 mg IV, 9 subjects): 2 (22%) n (%)
- TEAEs by maximum severity: Mild, no. of events ([5]; ESRD, 0.5 mg IV, 9 subjects): 2 no. of events
- Total number of mild TEAEs, overall ([5]; all 17 subjects of the renal study): 11
- Subjects who experienced TEAEs, overall ([5]; all subjects of the renal study (6 of 17)): 35.3%
- Dizziness, no. of events ([5]; healthy, 1 mg IV, 8 subjects): 1 no. of events
- Dizziness, subjects ([5]; healthy, 1 mg IV, 8 subjects): 1 (12.5%) n (%)
- Euphoria, no. of events ([5]; healthy, 1 mg IV, 8 subjects): 2 no. of events
- Euphoria, subjects ([5]; healthy, 1 mg IV, 8 subjects): 2 (25%) n (%)
- Fatigue, no. of events ([5]; healthy, 1 mg IV, 8 subjects): 2 no. of events
- Fatigue, subjects ([5]; healthy, 1 mg IV, 8 subjects): 2 (25%) n (%)
- Feeling of relaxation, no. of events ([5]; healthy, 1 mg IV, 8 subjects): 1 no. of events
- Feeling of relaxation, subjects ([5]; healthy, 1 mg IV, 8 subjects): 1 (12.5%) n (%)
- Headache, no. of events ([5]; healthy, 1 mg IV, 8 subjects): 1 no. of events
- Headache, subjects ([5]; healthy, 1 mg IV, 8 subjects): 1 (12.5%) n (%)
- Nausea, no. of events ([5]; healthy, 1 mg IV, 8 subjects): 3 no. of events
- Nausea, subjects ([5]; healthy, 1 mg IV, 8 subjects): 2 (25%) n (%)
- Pain in extremity, no. of events ([5]; healthy, 1 mg IV, 8 subjects): 1 no. of events
- Pain in extremity, subjects ([5]; healthy, 1 mg IV, 8 subjects): 1 (12.5%) n (%)
- Subjects with TEAEs by maximum severity: Mild ([5]; healthy, 1 mg IV, 8 subjects): 4 (50%) n (%)
- Subjects with TEAEs by maximum severity: Moderate ([5]; healthy, 1 mg IV, 8 subjects): 0
- Subjects with TEAEs by maximum severity: Severe ([5]; healthy, 1 mg IV, 8 subjects): 0
- TEAEs by maximum severity: Mild, no. of events ([5]; healthy, 1 mg IV, 8 subjects): 9 no. of events
- At least 1 TEAE, no. of events ([6]; healthy, 1 mg IV, 8 subjects): 0 no. of events
- Somnolence, no. of events ([6]; healthy, 1 mg IV, 8 subjects): 0 no. of events
- Somnolence, subjects ([6]; healthy, 1 mg IV, 8 subjects): 0 (0%) n (%)
- Subjects with TEAEs by maximum severity: Mild ([6]; healthy, 1 mg IV, 8 subjects): 0 (0%) n (%)
- Subjects with TEAEs by maximum severity: Moderate ([6]; healthy, 1 mg IV, 8 subjects): 0
- Subjects with TEAEs by maximum severity: Severe ([6]; healthy, 1 mg IV, 8 subjects): 0
- Subjects with at least 1 TEAE ([6]; healthy, 1 mg IV, 8 subjects): 0 (0%) n (%)
- TEAEs by maximum severity: Mild, no. of events ([6]; healthy, 1 mg IV, 8 subjects): 0 no. of events
- Duration of somnolence TEAEs ([6]; mild hepatic impairment group, mild intensity, resolved completely): approximately 1 hour
- At least 1 TEAE, no. of events [6, 15]: 2 no. of events
- Somnolence, no. of events [6, 15]: 2 no. of events
- Somnolence, subjects [6, 15]: 2 n (%) and 2 (20%) n (%)
- Subjects with TEAEs by maximum severity: Mild [6, 15]: 2 (20%) n (%)
- Subjects with TEAEs by maximum severity: Moderate [6, 15]: 0
- Subjects with TEAEs by maximum severity: Severe [6, 15]: 0
- Subjects with at least 1 TEAE [6, 15]: 2 (20%) n (%)
- TEAEs by maximum severity: Mild, no. of events [6, 15]: 2 no. of events
- At least 1 TEAE, no. of events [6, 16]: 0 no. of events
- Somnolence, no. of events [6, 16]: 0 no. of events
- Somnolence, subjects [6, 16]: 0 (0%) n (%)
- Subjects with TEAEs by maximum severity: Mild [6, 16]: 0 (0%) n (%)
- Subjects with TEAEs by maximum severity: Moderate [6, 16]: 0
- Subjects with TEAEs by maximum severity: Severe [6, 16]: 0
- Subjects with at least 1 TEAE [6, 16]: 0 (0%) n (%)
- TEAEs by maximum severity: Mild, no. of events [6, 16]: 0 no. of events
- At least 1 TEAE, no. of events [6, 17]: 0 no. of events
- Somnolence, no. of events [6, 17]: 0 no. of events
- Somnolence, subjects [6, 17]: 0 (0%) n (%)
- Subjects with TEAEs by maximum severity: Mild [6, 17]: 0 (0%) n (%)
- Subjects with TEAEs by maximum severity: Moderate [6, 17]: 0
- Subjects with TEAEs by maximum severity: Severe [6, 17]: 0
- Subjects with at least 1 TEAE [6, 17]: 0 (0%) n (%)
- TEAEs by maximum severity: Mild, no. of events [6, 17]: 0 no. of events

Structure (SMILES): NCC[C@@]1(c2ccccn2)CCOC2(CCCC2)C1 [TRV0109662]
- Share of total by AUC ([3]; major metabolite of oliceridine): ≥ 10%
- Share of total drug‐related material ([3]; major metabolite of oliceridine, ref data on file): 17%
- Activity at the μ receptor (μ receptor): inactive
